Source: ChEMBL document CHEMBL2163249, “Exploration of natural compounds as sources of new bifunctional scaffolds targeting cholinesterases and beta amyloid aggregation: the case of chelerythrine” (Bioorg Med Chem, 2012)
Counter-ions that a name gives are not always drawn.

Assays:
Cholinesterase [1] = biological target: Cholinesterase (Equus caballus, UniProt P81908); assay: Inhibition of horse BChE by Ellman's method
Cholinesterase [2] = biological target: Cholinesterase (Homo sapiens, UniProt P06276); assay: Inhibition of human BChE by Ellman's method
Chain of Cholinesterase (Homo sapiens, UniProt P06276) (P06276 whole entry): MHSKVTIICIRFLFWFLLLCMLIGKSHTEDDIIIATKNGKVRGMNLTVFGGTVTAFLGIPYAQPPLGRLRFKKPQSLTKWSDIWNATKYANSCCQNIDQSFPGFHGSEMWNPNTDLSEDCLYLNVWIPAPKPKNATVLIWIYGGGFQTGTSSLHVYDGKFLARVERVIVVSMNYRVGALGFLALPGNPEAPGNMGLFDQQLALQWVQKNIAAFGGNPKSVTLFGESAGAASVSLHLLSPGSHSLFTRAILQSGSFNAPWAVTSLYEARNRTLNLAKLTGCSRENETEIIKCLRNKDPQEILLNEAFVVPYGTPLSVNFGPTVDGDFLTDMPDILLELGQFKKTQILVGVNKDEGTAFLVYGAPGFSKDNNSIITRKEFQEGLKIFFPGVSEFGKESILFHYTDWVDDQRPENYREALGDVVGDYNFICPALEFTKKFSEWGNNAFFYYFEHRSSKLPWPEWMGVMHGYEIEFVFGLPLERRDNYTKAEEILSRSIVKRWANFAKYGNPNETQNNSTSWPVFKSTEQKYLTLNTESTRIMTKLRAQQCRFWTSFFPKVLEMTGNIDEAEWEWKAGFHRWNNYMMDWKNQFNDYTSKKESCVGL

Acetylcholinesterase [3] = biological target: T1, Acetylcholinesterase (Electrophorus electricus, UniProt O42275); assay: Inhibition of electric eel AChE by Ellman's method
T1 sequence (O42275 whole entry): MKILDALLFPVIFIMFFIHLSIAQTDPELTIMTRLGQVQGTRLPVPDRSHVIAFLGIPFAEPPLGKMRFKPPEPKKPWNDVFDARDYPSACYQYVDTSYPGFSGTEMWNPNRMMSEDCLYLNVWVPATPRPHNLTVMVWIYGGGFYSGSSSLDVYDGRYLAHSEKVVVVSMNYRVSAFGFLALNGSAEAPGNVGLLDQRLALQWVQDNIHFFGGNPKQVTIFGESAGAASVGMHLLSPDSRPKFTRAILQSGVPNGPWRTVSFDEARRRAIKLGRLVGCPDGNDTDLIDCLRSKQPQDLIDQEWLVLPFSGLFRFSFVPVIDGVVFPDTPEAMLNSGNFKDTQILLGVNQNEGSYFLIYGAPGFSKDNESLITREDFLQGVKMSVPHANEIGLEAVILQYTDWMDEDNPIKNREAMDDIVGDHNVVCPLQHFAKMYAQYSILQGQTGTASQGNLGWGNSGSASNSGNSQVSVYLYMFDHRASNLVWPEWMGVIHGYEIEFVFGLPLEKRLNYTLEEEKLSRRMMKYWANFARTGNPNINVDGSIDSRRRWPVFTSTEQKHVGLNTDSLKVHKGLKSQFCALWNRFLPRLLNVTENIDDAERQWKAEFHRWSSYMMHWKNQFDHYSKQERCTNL

[4] = biological target: Acetylcholinesterase (Electrophorus electricus) (UniProt O42275); details: at 2 mg/mL
Chain of Acetylcholinesterase (Electrophorus electricus) (O42275 24-633 limits assumed): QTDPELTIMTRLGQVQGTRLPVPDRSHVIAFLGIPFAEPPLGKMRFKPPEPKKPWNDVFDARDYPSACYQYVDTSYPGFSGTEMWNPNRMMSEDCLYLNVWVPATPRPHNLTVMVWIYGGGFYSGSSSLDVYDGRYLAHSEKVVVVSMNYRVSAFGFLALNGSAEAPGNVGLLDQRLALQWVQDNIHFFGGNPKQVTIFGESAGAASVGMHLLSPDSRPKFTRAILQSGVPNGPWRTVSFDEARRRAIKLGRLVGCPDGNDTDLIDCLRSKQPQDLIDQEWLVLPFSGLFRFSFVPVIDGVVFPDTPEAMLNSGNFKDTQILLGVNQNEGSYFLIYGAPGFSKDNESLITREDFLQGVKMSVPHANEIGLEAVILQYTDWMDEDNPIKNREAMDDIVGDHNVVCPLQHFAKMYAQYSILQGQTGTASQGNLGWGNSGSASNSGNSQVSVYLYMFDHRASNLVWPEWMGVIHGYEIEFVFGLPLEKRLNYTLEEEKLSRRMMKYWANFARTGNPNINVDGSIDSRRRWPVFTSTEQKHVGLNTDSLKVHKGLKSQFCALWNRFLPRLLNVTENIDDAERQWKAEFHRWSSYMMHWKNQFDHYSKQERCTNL
Description: Inhibition of electric eel AChE at 2 mg/ml by Ellman's method

[5] = biological target: Cholinesterase (Equus caballus) (UniProt P81908); details: at 2 mg/mL
Chain of Cholinesterase (Equus caballus) (P81908 whole entry): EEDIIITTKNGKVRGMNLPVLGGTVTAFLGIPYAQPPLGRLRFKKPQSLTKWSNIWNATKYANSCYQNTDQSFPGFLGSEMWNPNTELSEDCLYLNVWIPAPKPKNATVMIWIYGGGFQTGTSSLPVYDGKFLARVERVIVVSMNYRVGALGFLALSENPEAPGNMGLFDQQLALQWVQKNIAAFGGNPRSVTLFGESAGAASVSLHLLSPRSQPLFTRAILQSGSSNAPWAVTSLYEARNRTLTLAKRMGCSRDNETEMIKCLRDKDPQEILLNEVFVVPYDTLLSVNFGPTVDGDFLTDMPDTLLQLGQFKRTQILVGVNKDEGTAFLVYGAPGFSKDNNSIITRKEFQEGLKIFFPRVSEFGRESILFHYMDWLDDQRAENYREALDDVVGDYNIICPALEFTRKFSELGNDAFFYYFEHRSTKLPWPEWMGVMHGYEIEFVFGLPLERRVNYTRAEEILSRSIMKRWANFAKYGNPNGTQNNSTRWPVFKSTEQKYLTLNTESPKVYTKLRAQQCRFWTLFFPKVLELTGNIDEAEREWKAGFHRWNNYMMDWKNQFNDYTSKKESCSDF
Description: Inhibition of horse BChE at 2 mg/ml by Ellman's method

[6] = Inhibition of amyloid beta (1 to 40) aggregation assessed as induction of disaggregation at 100 uM treated 4 days after formation of aggregates by thioflavin T fluorescence method
[7] = Inhibition of HFIP-induced amyloid beta (1 to 40) aggregation at 250 uM after 45 mins by thioflavin T fluorescence method
Acetylcholinesterase [8] = biological target: T1, Acetylcholinesterase; assay: Competitive inhibition of electric eel AChE using acetyl thiocholine iodide as substrate by Lineweaver-Burk double-reciprocal analysis
Acetylcholinesterase [9] = biological target: T1, Acetylcholinesterase; assay: Uncompetitive inhibition of electric eel AChE using acetyl thiocholine iodide as substrate by Lineweaver-Burk double-reciprocal analysis
Acetylcholinesterase [10] = biological target: T2, Acetylcholinesterase (Homo sapiens, UniProt P22303); assay: Competitive inhibition of human AChE using acetyl thiocholine iodide as substrate by Lineweaver-Burk double-reciprocal analysis
T2 sequence (P22303 whole entry): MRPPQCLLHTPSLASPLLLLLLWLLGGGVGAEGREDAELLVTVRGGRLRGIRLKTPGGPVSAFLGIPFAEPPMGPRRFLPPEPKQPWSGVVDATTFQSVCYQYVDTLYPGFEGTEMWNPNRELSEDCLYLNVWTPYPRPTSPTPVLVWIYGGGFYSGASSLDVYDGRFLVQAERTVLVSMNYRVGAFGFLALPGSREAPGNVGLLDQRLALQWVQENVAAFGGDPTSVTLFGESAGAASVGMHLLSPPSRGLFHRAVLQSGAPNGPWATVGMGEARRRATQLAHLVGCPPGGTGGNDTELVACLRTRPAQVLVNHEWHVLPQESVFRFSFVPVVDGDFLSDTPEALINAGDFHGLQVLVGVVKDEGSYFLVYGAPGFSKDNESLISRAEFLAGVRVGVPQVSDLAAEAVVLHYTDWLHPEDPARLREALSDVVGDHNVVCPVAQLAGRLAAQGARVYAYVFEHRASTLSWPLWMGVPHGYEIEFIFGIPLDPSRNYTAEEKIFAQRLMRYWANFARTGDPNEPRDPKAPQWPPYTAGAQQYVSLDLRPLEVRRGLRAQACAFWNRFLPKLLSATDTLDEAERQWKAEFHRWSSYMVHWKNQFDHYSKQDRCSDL

Acetylcholinesterase [11] = biological target: T2, Acetylcholinesterase; assay: Uncompetitive inhibition of human AChE using acetyl thiocholine iodide as substrate by Lineweaver-Burk double-reciprocal analysis
[12] = Inhibition of HFIP-induced amyloid beta (1 to 40) aggregation after 45 mins by thioflavin T fluorescence method
[13] = Inhibition of HFIP-induced amyloid beta (1 to 40) aggregation at 10 uM after 45 mins by thioflavin T fluorescence method
[14] = Inhibition of amyloid beta (1 to 40) aggregation assessed as induction of disaggregation treated 45 mins after formation of aggregates by thioflavin T fluorescence method
Acetylcholinesterase [15] = biological target: T2, Acetylcholinesterase
Description: Inhibition of human AChE by Ellman's method

[16] = Inhibition of amyloid beta (1 to 42) aggregation
[17] = Inhibition of amyloid beta (1 to 40) aggregation assessed as induction of disaggregation at 10 uM treated 24 hrs after formation of aggregates by thioflavin T fluorescence method
[18] = Inhibition of amyloid beta (1 to 40) aggregation assessed as induction of disaggregation at 100 uM treated 24 hrs after formation of aggregates by thioflavin T fluorescence method
[19] = Inhibition of HFIP-induced amyloid beta (1 to 40) aggregation at 20 uM after 45 mins by thioflavin T fluorescence method

Chain of Cholinesterase (Equus caballus, UniProt P81908) (P81908 whole entry): as the sequence (P81908 whole entry) above

Structure (SMILES) | IC50 (Cholinesterase [1]; read-out: IC50) [µM] | IC50 (Cholinesterase [2]; read-out: IC50) [µM] | inhibition [4] [%] | inhibition [5] [%] | further results
Cl.Cl.c1ccc2c3c([nH]c2c1)[C@H]1[C@H]2CC[C@H]([C@@H]4CCCN[C@@H]42)N1CC3 | 10.6 | 9.01 | 20.5 | 48.7 | IC50 (Acetylcholinesterase [3]): Not Active
Cc1c([C@H](C)[C@@H]2NC[C@@H](C)C[C@H]2O)ccc2c1C[C@H]1[C@H]2CC=C2C[C@@H](O)CC[C@@]21C [VERATRAMINE] | 10.8 | 19.5 | 24.5 | 66.2 | IC50 (Acetylcholinesterase [3]): Not Active
CC(C)=CCC[C@]1(C)[C@@H](CC=C(C)C)C[C@]2(CC=C(C)C)C(=O)C(CC=C(C)C)=C(O)[C@@]1(C(=O)C(C)C)C2=O | – | – | – | – | inhibition [6]: 20%
Nc1ccc(O)cc1 | – | – | – | – | inhibition [7]: 64%
COc1ccc2c(c[n+](C)c3c4cc5c(cc4ccc23)OCO5)c1OC [CHELERYTHRINE CHLORIDE] | 6.33 | 10.3 | 75.9 | 83.5 | IC50 (Acetylcholinesterase [3]; read-out: IC50): 3.78 µM; Ki (Acetylcholinesterase [8]): 0.48 µM; Ki (Acetylcholinesterase [9]): 0.92 µM; Ki (Acetylcholinesterase [10]): 0.32 µM; Ki (Acetylcholinesterase [11]): 1.12 µM; IC50 [12]: 4.2 µM; inhibition [13]: 67%; IC50 [14]: 13 µM; IC50 (Acetylcholinesterase [15]): 1.54 µM
c1ccc2c(c1)CN1CCCC1=N2 [DESOXYPEGANINE HYDROCHLORIDE HYDRATE] | 11.9 | – | 70.6 | 94.8 | IC50 (Acetylcholinesterase [3]; read-out: IC50): 11.8 µM
COc1cc2c3cc1Oc1c(OC)c(OC)cc4c1[C@@H](Cc1ccc(OC(=O)c5ccc([N+](=O)[O-])cc5)c(c1)Oc1ccc(cc1)C[C@@H]3N(C)CC2)N(C)CC4 [E6 BERBAMINE] | 4.2 | 2.14 | – | 0.47 | IC50 (Acetylcholinesterase [3]): Not Active
C=C[C@H]1C[N@@]2CC[C@H]1C[C@@H]2[C@@H](O)c1ccnc2ccc(OC)cc12 [QUINIDINE] | 7.37 | 1.23 | – | – | –
O[C@H]1CCN2Cc3ccccc3N=C12 [VASICINE] | 2.53 | 3.13 | – | 85.7 | IC50 (Acetylcholinesterase [3]): Not Active
Oc1cccc2[nH]ccc12 | – | – | – | – | IC50 [16]: 85 µM
C[C@@H]1OC(=O)[C@H]2C[C@H]3CCCC[C@@H]3[C@@H](/C=C/[C@H]3CCC[C@H](C)N3C)[C@@H]12 [HIMBACINE] | – | – | 57 | – | IC50 (Cholinesterase [1]): Not Active; IC50 (Cholinesterase [2]): Not Active; IC50 (Acetylcholinesterase [3]; read-out: IC50): 22.7 µM
COc1cc2c(cc1OC)-c1cc3ccc(OC)c(OC)c3c[n+]1CC2.O.[Cl-] [PALMATINE CHLORIDE HYDRATE] | – | – | 72.6 | 7.47 | IC50 (Cholinesterase [1]): Not Active; IC50 [12]: 92.2 µM; IC50 [14]: 174 µM; IC50 (Acetylcholinesterase [15]): 1.69 µM
Oc1ccc(/C=C/c2cc(O)cc(O)c2)cc1 [RESVERATROL] | – | – | 15.1 | 36.8 | IC50 [14]: 81.8 µM; inhibition [17]: 71%; inhibition [18]: 32%
CCC1=C[C@@H]2CN3CCc4c([nH]c5ccccc45)[C@@](C(=O)OC)(C2)[C@@H]13 [CATHARANTHINE BASE] | 5.17 | 3.17 | 5.28 | 75.2 | IC50 (Acetylcholinesterase [3]): Not Active
C[C@@H]1CC[C@H]2[C@H](C)[C@H]3CC[C@@]4(O)[C@@H]5CC(=O)[C@H]6CC(=O)CC[C@]6(C)[C@H]5C[C@H]4[C@@H]3CN2C1 [SEVEDINDIONE] | 3.68 | 0.27 | – | 17 | IC50 (Acetylcholinesterase [3]): Not Active
COc1cc2c3cc1Oc1c(OO)c(OC)cc4c1[C@H](Cc1ccc(cc1)Oc1cc(ccc1O)C[C@H]3N(C)CC2)N(C)CC4.O=S(=O)(O)O [OXYACANTHINE SULFATE] | 4.1 | 1.89 | 0.62 | 66.3 | IC50 (Acetylcholinesterase [3]): Not Active
C=C[C@H]1CN2CC[C@H]1C[C@@H]2[C@@H](O)c1ccnc2ccc(OC)cc12 [QUINIDINE] | – | – | 20.2 | 66 | IC50 (Acetylcholinesterase [3]): Not Active
CC[C@H]1CN2CCc3c([nH]c4ccccc34)[C@H]2C[C@@H]1/C(=C\OC)C(=O)OC [HIRSUTINE] | 4.97 | 1.97 | – | 87.1 | IC50 (Acetylcholinesterase [3]): Not Active
OC1c2ccccc2N=C2CCCN21 (configuration not stated) [PEGANOLE] | 11.4 | > 20 | – | 65.7 | IC50 (Acetylcholinesterase [3]): Not Active

Structure (SMILES) | IC50 (Cholinesterase [1]; read-out: IC50) [µM] | IC50 (Cholinesterase [2]; read-out: IC50) [µM] | inhibition [4] [%] | inhibition [5] [%] | further results
COc1ccc2cc3[n+](cc2c1OC)CCc1cc2c(cc1-3)OCO2 [BERBERINE CHLORIDE] | – | – | 79 | – | IC50 (Acetylcholinesterase [3]; read-out: IC50): 2.74 µM; IC50 [12]: 43.8 µM; inhibition [19]: 36%; IC50 [14]: 106 µM
COC(=O)[C@H]1[C@H]2C[C@H]3c4[nH]c5ccccc5c4CCN3C[C@H]2CC[C@@H]1O.Cl [RAUWOLSCINE HYDROCHLORIDE] | 8.38 | 13.7 | 12.4 | 59.1 | IC50 (Acetylcholinesterase [3]): Not Active
C=C1C[C@]23C[C@@]1(O)CC[C@H]2[C@@]12C=C[C@H](O)[C@@](C)(C(=O)O1)[C@H]2[C@@H]3C(=O)O | – | – | -1.11 | -5.65 | –
COC(=O)C1=CO[C@@H](C)[C@@H]2CN3CCc4c([nH]c5ccccc45)[C@@H]3C[C@H]12 | – | – | 22 | 89.1 | –
C[C@@]1(CO)[C@H](O)CC[C@@]2(C)[C@H]1CC[C@H]1C[C@@H]3C[C@@]12CC[C@]3(O)CO | – | – | 8.45 | 13.5 | –
C1CCN2C[C@@H]3C[C@@H](CN4CCCC[C@@H]34)[C@H]2C1 | – | – | 4.72 | 5.31 | –
COc1ccc2c(c1OC)C(=O)OC2C1c2c(cc3c(c2OC)OCO3)CCN1C (racemic) | – | – | -5.54 | 3.34 | –
C/C=C1\CN2CC[C@]34C(=C(CC=O)[C@H]1C[C@H]23)Nc1ccccc14 | – | – | 21.1 | 12 | –
CC(C)=CCC/C(C)=C/CC/C(C)=C/CC/C(C)=C/C(=O)O | – | – | -5.57 | -2.05 | –
COc1cc(CCC(C)=O)ccc1O | – | – | -5.32 | 10.8 | –
CC(=O)O[C@H]1[C@H]2[C@@H](OC(=O)Cc3ccccc3)[C@@H](C)C[C@]2(OC(C)=O)C(=O)/C(C)=C/[C@@H]2[C@H](CC[C@@]13CO3)C2(C)C | – | – | -2.46 | -5.46 | –
CC1=NCCc2c1[nH]c1cc(O)ccc21 | – | – | 41.8 | 34.5 | –
O=C1C[C@@H](c2ccc(O)c(O)c2)Oc2c1ccc(O[C@@H]1O[C@H](CO)[C@@H](O)[C@H](O)[C@H]1O)c2O | – | – | 8.08 | 3.1 | –
COc1cc(C(=O)O[C@H]2C[C@@H]3CC[C@]2(C)C3(C)C)ccc1O | – | – | 25.2 | 1.44 | –
CC(C)[C@H]1C(=O)O[C@@H]2CCN3CC=C(COC(=O)[C@](C)(O)[C@]1(C)O)[C@H]23 | – | – | 24.2 | 3.04 | –
O=C1C[C@@H]2OCC=C3CN4CC[C@]56c7ccccc7N1[C@H]5[C@H]2[C@H]3C[C@H]46 | – | – | 12.2 | 32.4 | –
O=c1c(O)c(-c2ccc(O)c(O)c2)oc2cc(O)ccc12 | – | – | 27.5 | 2.06 | –
N[C@H](C(=O)O)[C@@H]1CC(Cl)=NO1 | – | – | 2.09 | 8.62 | –
